Test results from PubChem BioAssay AID1963868 (Molecular Pharmacology Branch, DTP, NCI, 2024).
pIC50: −log10 of the molar value.

Tested on: KRAS PDC tumor spheroids (HUVEC+MSC), viability
Experiment: Anticancer human tumor 254851-301-R-J1-PDC patient-derived colon carcinoma cell line growth inhibition [KRAS2]
Details: for pIC50: curve of first compound; for viability, T/C: stronger effect = lower value
Summary of the method: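 Combination screen of spheroid viability in tumor-cell co-cultures with endothelial (HUVEC) and mesenchymal stem cell stroma. Each agent was tested in half-log dilutions, topping at clinical Cmax or at 10 microM without a known Cmax.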
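Also: spheroids exposed to compounds for seven days before readout.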
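For viability, T/C in this document: 100% = DMSO vehicle control luminescence of the spheroids.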

`Cn1ncnc1[C@H]1c2n[nH]c(=O)c3cc(F)cc(c23)N[C@@H]1c1ccc(F)cc1` + C=CC(=O)N1CCN(c2nc(OCC3CCCN3C)nc3c2CCN(c2cccc4cccc(C)c24)C3)CC1CC#N was tested. Which pIC50 (second compound 0.0316 µM) did it give?
The pIC50 was less than 7.00.

What about the pIC50 (second compound 0.1 µM) of the same molecule?
Its pIC50 is less than 7.00.

What about the pIC50 (second compound 0.316 µM) of the same molecule?
Its pIC50 is less than 7.00.

And the pIC50 (second compound 1 µM)?
Its pIC50 is less than 7.00.

What about the pIC50 (second compound 3.16 µM) of the same molecule?
Its pIC50 is less than 7.00.

And the viability, T/C (second compound 0.0316 µM, first compound 0.000316 µM)?
Its viability, T/C is 116%.

And the viability, T/C (second compound 0.0316 µM, first compound 0.001 µM)?
Its viability, T/C is 112%.

And the viability, T/C (second compound 0.0316 µM, first compound 0.00316 µM)?
Its viability, T/C is 101%.

What about the viability, T/C (second compound 0.0316 µM, first compound 0.01 µM) of the same molecule?
Its viability, T/C is 97.4%.

What about the viability, T/C (second compound 0.0316 µM, first compound 0.0316 µM) of the same molecule?
Its viability, T/C is 101%.

And the viability, T/C (second compound 0.0316 µM, first compound 0.1 µM)?
The viability, T/C was 90.9%.

What about the viability, T/C (second compound 0.1 µM, first compound 0.000316 µM) of the same molecule?
The viability, T/C was 107%.

What about the viability, T/C (second compound 0.1 µM, first compound 0.001 µM) of the same molecule?
The viability, T/C was 105%.

And the viability, T/C (second compound 0.1 µM, first compound 0.00316 µM)?
The viability, T/C was 98.5%.

What about the viability, T/C (second compound 0.1 µM, first compound 0.01 µM) of the same molecule?
The viability, T/C was 100%.

What about the viability, T/C (second compound 0.1 µM, first compound 0.0316 µM) of the same molecule?
The viability, T/C was 103%.

What about the viability, T/C (second compound 0.1 µM, first compound 0.1 µM) of the same molecule?
The viability, T/C was 100%.

And the viability, T/C (second compound 0.316 µM, first compound 0.000316 µM)?
Its viability, T/C is 100%.

What about the viability, T/C (second compound 0.316 µM, first compound 0.001 µM) of the same molecule?
Its viability, T/C is 104%.

And the viability, T/C (second compound 0.316 µM, first compound 0.00316 µM)?
Its viability, T/C is 103%.

And the viability, T/C (second compound 0.316 µM, first compound 0.01 µM)?
The viability, T/C was 94.8%.

And the viability, T/C (second compound 0.316 µM, first compound 0.0316 µM)?
The viability, T/C was 96.1%.

And the viability, T/C (second compound 0.316 µM, first compound 0.1 µM)?
Its viability, T/C is 93%.

What about the viability, T/C (second compound 1 µM, first compound 0.000316 µM) of the same molecule?
Its viability, T/C is 101%.

And the viability, T/C (second compound 1 µM, first compound 0.001 µM)?
The viability, T/C was 106%.

And the viability, T/C (second compound 1 µM, first compound 0.00316 µM)?
The viability, T/C was 94.6%.

What about the viability, T/C (second compound 1 µM, first compound 0.01 µM) of the same molecule?
Its viability, T/C is 88.9%.

And the viability, T/C (second compound 1 µM, first compound 0.0316 µM)?
The viability, T/C was 95.1%.

And the viability, T/C (second compound 1 µM, first compound 0.1 µM)?
The viability, T/C was 99.8%.

And the viability, T/C (second compound 3.16 µM, first compound 0.000316 µM)?
Its viability, T/C is 62.8%.

And the viability, T/C (second compound 3.16 µM, first compound 0.001 µM)?
Its viability, T/C is 68.4%.

What about the viability, T/C (second compound 3.16 µM, first compound 0.00316 µM) of the same molecule?
Its viability, T/C is 61.5%.

And the viability, T/C (second compound 3.16 µM, first compound 0.01 µM)?
The viability, T/C was 47.8%.

And the viability, T/C (second compound 3.16 µM, first compound 0.0316 µM)?
Its viability, T/C is 50.7%.

What about the viability, T/C (second compound 3.16 µM, first compound 0.1 µM) of the same molecule?
Its viability, T/C is 62.9%.
